Patent US20120015090A1, “READILY WATER-SOLUBLE MYRICITRIN COMPOSITION” (SAN-EI GEN F.F.I., INC., priority 2009, published 2012)

Legend:
[1] = Flavor deterioration suppressing effect, sensory evaluation of drinks after light or heat stress test (Experiment Example 6); parameters: key: 1 = no-addition blank drink, 5 = drink before the test; conditions: added 0.1% (γ-CD 0.01%)
Protocol: Various drinks mixed with the MY or MY composition were subjected to a light or heat stress test (accelerated test) to evaluate the flavor deterioration suppressing effect of the MY or MY composition.
Specifically, eight drinks were prepared in the formulations 1 to 8 below. Then, a 3% MY preparation (product name: SanMelin**Y-AF*), a MY/γ-CD inclusion product preparation (MY: γ-CD=1:1.2) (containing 3% MY) prepared in Example 2, a MY/γ-CD inclusion product preparation (MY: γ-CD=1:1.2) (containing 6% MY) prepared in Example 3, and γ-CD (Wacker Chemical) were added thereto in the final concentrations shown in FIG. 10.
The drinks prepared as above were tested under the severity conditions presented in Table 10, and changes in drink flavor after the test were examined by six panelists in a sensory evaluation. Evaluations were made according to the following criteria on a scale of 1 (a drink with no addition (blank)) to 5 (each drink before the test).
Table 10 presents mean values of the scored points evaluated by the six panelists.

[2] = Fading suppressing effect, fluorescent light irradiation (Experiment Example 5); conditions: pH 3.1, final MY 0.003%, γ-CD 0.01%, EMIQ […]
Protocol: (§1) Specifically, a colorant-containing acidic drink of the formulation below was prepared. Then, a 3% MY preparation (product name: SanMelin**Y-AF*) and a MY/γ-CD inclusion product (MY: γ-CD=1:1.2) (containing 3% myricitrin) prepared in Example 2 were added to the drink to a final MY concentration of 0.003% or to a final γ-CD (Wacker Chemical) concentration of 0.01%.
(§2) The drinks were irradiated with a UV Fade Meter (UV Long-Life Fade Meter FAL-3, Suga Test Instruments Co., Ltd.) or a fluorescent light (BIOTRON LH 300, NK System) for the durations presented in Tables 6 and 7. Absorbance was measured before and after the irradiation, and the percentage of remaining color (%) after the irradiation was calculated. Further, as a control test, a colorant-containing acidic drink was irradiated with the UV Fade Meter or fluorescent light as above without adding anything (no addition), and the percentage of remaining color (%) after the irradiation was calculated.

[3] = Fading suppressing effect, UV Fade Meter irradiation (Experiment Example 5); conditions: pH 3.1, final MY 0.003%, γ-CD 0.01%, EMIQ […]
Protocol: as §1, §2

percentage of remaining color (%) ([2]; Cochineal colorant 0.05%, fluorescent light 1 D): 64.2% | percentage of remaining color (%) ([2]; Elderberry colorant 0.05%, fluorescent light 6 D): 63.8% | percentage of remaining color (%) ([2]; Gardenia blue colorant 0.05%, fluorescent light (time not given)): 58.4% | percentage of remaining color (%) ([2]; Monascus colorant, fluorescent light 4 D): 38.7% | percentage of remaining color (%) ([2]; Paprika colorant 0.05%, fluorescent light 6 D): 71.2% | percentage of remaining color (%) ([2]; Purple corn colorant 0.05%, fluorescent light 2 D): 65.5% | percentage of remaining color (%) ([2]; Purple sweet potato colorant 0.05%, fluorescent light 6 D): 80.4% | percentage of remaining color (%) ([2]; Red cabbage colorant 0.05%, fluorescent light 4 D): 62.8% | percentage of remaining color (%) ([2]; Safflower yellow colorant 0.05%, fluorescent light 6 D): 68.1% | percentage of remaining color (%) ([2]; β-carotene 0.05%, fluorescent light 1 D): 67.4% | percentage of remaining color (%) ([3]; Cochineal colorant 0.05%, UV Fade Meter 6 H): 64.3% | percentage of remaining color (%) ([3]; Elderberry colorant 0.05%, UV Fade Meter 2 H): 68.5% | percentage of remaining color (%) ([3]; Gardenia blue colorant 0.05%, UV Fade Meter 19 H): 68.6% | percentage of remaining color (%) ([3]; Grape juice colorant 0.1%, UV Fade Meter 2 H): 75.0% | percentage of remaining color (%) ([3]; Monascus colorant, UV Fade Meter 3 H): 30.2% | percentage of remaining color (%) ([3]; Paprika colorant 0.05%, UV Fade Meter 3 H): 50.3% | percentage of remaining color (%) ([3]; Purple corn colorant 0.05%, UV Fade Meter 4 H): 72.8% | percentage of remaining color (%) ([3]; Purple sweet potato colorant 0.05%, UV Fade Meter 7 H): 46.5% | percentage of remaining color (%) ([3]; Red cabbage colorant 0.05%, UV Fade Meter 10 H): 53.9% | percentage of remaining color (%) ([3]; Safflower yellow colorant 0.05%, UV Fade Meter 4 H): 48.6% | percentage of remaining color (%) ([3]; β-carotene 0.05%, UV Fade Meter 17 H): 68.5%
Structure (SMILES): OC[C@H]1O[C@@H]2O[C@H]3[C@H](O)[C@@H](O)[C@@H](O[C@H]4[C@H](O)[C@@H](O)[C@@H](O[C@H]5[C@H](O)[C@@H](O)[C@@H](O[C@H]6[C@H](O)[C@@H](O)[C@@H](O[C@H]7[C@H](O)[C@@H](O)[C@@H](O[C@H]8[C@H](O)[C@@H](O)[C@@H](O[C@H]9[C@H](O)[C@@H](O)[C@@H](O[C@H]1[C@H](O)[C@H]2O)O[C@@H]9CO)O[C@@H]8CO)O[C@@H]7CO)O[C@@H]6CO)O[C@@H]5CO)O[C@@H]4CO)O[C@@H]3CO [γ-CD, γ-cyclodextrin]
flavor change score, mean of six panelists ([1]; Coffee, Fluorescent light (20000 lx, 16 hr, 15° C.), scale 1 to 5): 2.4 | flavor change score, mean of six panelists ([1]; Grape drink, Fluorescent light (20000 lx, 15 hr, 15° C.), scale 1 (blank) to 5 (before test)): 1.6 | flavor change score, mean of six panelists ([1]; Grapefruit drink (20% fruit juice), Fade Meter ([…]), scale 1 to 5): 2.2 | flavor change score, mean of six panelists ([1]; Grapefruit drink (20% fruit juice), Fluorescent light (20000 lx, 21 hr, 10° C.), scale 1 to 5): 2.0 | flavor change score, mean of six panelists ([1]; Grapefruit drink (20% fruit juice), Heat (55° C., 64 hr), scale 1 to 5): 2.8 | flavor change score, mean of six panelists ([1]; Grapefruit drink (100% fruit juice), Fluorescent light (20000 lx, 18 hr, 15° C.), scale 1 to 5): 2.1 | flavor change score, mean of six panelists ([1]; Lemon drink, Fluorescent light (20000 lx, 21 hr, 10° C.), scale 1 to 5): 2.2 | flavor change score, mean of six panelists ([1]; Milk tea, Fluorescent light (20000 lx, 18 hr, 15° C.), scale 1 to 5): 2.3 | flavor change score, mean of six panelists ([1]; Orange drink (20% fruit juice), Fluorescent light (20000 lx, 18 hr, 15° C.), scale 1 to 5): 2.3 | flavor change score, mean of six panelists ([1]; Sour milk beverage, Fluorescent light (20000 lx, 18 hr, 15° C.), scale 1 to 5): 2.7
